Source: patent US20100104625A1, “BIODEGRADABLE COMPOSITIONS AND MATERIALS” (CORNELL UNIVERSITY, priority 2007, published 2010)

Assay: Sessile contact angle of water on lipid pellet surface
Assay type: physicochemical
Conditions: pellets fabricated from each lipid
Description: Particle characterization. Particle morphology and size were studied at low voltage (5 kV) using scanning electron microscopy imaging (LEICA 440) after coating with palladium. Surface charge measurements on samples suspended in 1:10 diluted PBS were carried out using a Malvern Zetasizer-Nano ZS (Malvern, UK). A PRECO Hydraulic press (Los Angles, Calif.) was used to make lipid pellets with approximate surface area of 25 mm^2. For contact angle measurements, a ramé-hart contact angle goniometer (100-FO) was used to measure the sessile contact angle of water on a lipid pellet surface. Unless otherwise stated, measurements were taken in triplicate.

## CCCCCCCC(=O)OCC(=O)COC(=O)CCCCCCC [C8]
  Hydrophobicity by contact angle of water on lipid surfaces: least hydrophobic
